Reference: article PMC10515483, “Structure–Reactivity Studies of 2-Sulfonylpyrimidines Allow Selective Protein Arylation” (Bioconjugate Chemistry, 2023)

Legend:
[1] = GSH arylation rate constants (NMR; UV-vis for fast warheads); type: physicochemical; parameters: key to rate constant (k) for the reaction with GSH / k: NR = no reaction; details: for rate constant (k) for the reaction with GSH: by NMR, 5% DMSO-d6; for rate constant (k) for the reaction with GSH / second order rate constant k with GSH: KPi buffer; for k change (vs ref): ratio to rate constant of 4q, acceleration (+) or deceleration (-); for k: Table S8, rate constants obtained at pH = 7; for k/kref / ΔΔG≠1exp: relative to 4q; for ΔΔG≠1exp: via -RTln(k/kref)
Text: We employed nuclear magnetic resonance (NMR) and UV–vis to quantify the reactivity of our 2-SP derivatives and other representative electrophiles (Figure 2) against cysteine. NMR allowed straightforward determination of reaction rate constants through dual monitoring of the consumption of the warhead and formation of the product by integration of their respective NMR signals (Figures S1–S3). It simultaneously provided a direct readout on reaction specificity and hydrolytic stability of the warhead. All measurements were carried out in KPi buffer in the presence of 5% d^6-dmso, which is generally well-tolerated by a wide range of proteins in in vitro studies. N-acetylcysteine methylester (NACME) and L-glutathione (GSH) are useful model cysteine nucleophiles for in vitro studies of electrophilic agents.[32] Mixing reference electrophile 2-methylsulfonylpyrimidine (4q) with NACME or GSH in a 1:10 ratio (pseudo-first-order conditions) allowed extraction of accurate and reproducible second order rate constants (k).
Figure 3 In vitro determination of electrophilic reactivity of compounds. (A) NMR assay setup for warhead/GSH reaction rate constant determination and chemoselectivity monitoring, over a 6 h time scale. Purple bead = GSH. Hydrolytic stability was determined in the same way over 36 h. d^4-Trimethylsilylpropanoate (TMSP, blue box) was used as an internal standard for monitoring the warhead solubility. Second-order reaction rate constants (k) were obtained from their pseudo-first-order counterparts (k′), by time-dependent normalized integration of the disappearing warhead signals. […] (B) Experimental second-order rate constants (y axis, log10 scale) for the reaction of representative 2-SP derivatives (left, 11 out of ca. 40 examples) and previously reported heteroarylsulfones (right) with GSH in a KPi buffer, pH 7.0, 20 °C. All rate constants were calculated as an average of at least two independent measurements. Numerical values and standard deviations at both pH 7.0 and 6.5, along with a full list of 2-SPs and other electrophile types tested, are presented in Tables S2–S6 and Figure S4. The horizontal dashed line marks the reaction rate of 2-methylsulfonylpyrimidine at pH 7.0, as a reference when comparing with other reagents (see main text).
To establish an accurate structure–reactivity profile of 2-SP reagents, we systematically determined their reaction rate constants for the arylation of GSH by NMR, at pH 7.0 and 6.5. This was a prerequisite to (i) quantify the influence of substitution on reaction rates; (ii) accurately assess the tunability and chemoselectivity of 2-SPs for cysteine arylation; (iii) determine the influence of pH on the reaction rates to further inform on the precise reaction mechanism; and (iv) benchmark the overall performance of 2-SPs with those of previously reported fast reacting heteroarylsulfones and other common cysteine reactive warheads (Figure 2C,D).

[2] = Hydrolytic stability in KPi buffer without thiol (NMR); type: physicochemical; details: over 12 hours, 50 mM KPi, footnote a: crashing out of solution, no degradation product
Protocol: NMR studies: rate constant determination and hydrolytic stability. 850 µL of 50 mM Kpi buffer solution (pH 8.2 or 7), 20 µL of the appropriate pyrimidine stock s olution (100 mM in DMSO -d6), 20 µL of TMSP stock solution (22.2 mM in DI water), 30 µL DMSO -d6, and 80 µL of GSH stock solution (0.25 M in DI water, reactivity only) were successively added/mixed at room temperature, final pH 7.0 or 6.5 (Table S1). 600 µL of this freshly prepared solution was poured into an NMR tube and immediately […]
transferred to the NMR instrument for acquisition. 1H spectra (16 scans) were recorded every 10 minutes under water suppression conditions. Following acquisition, spectra were analysed using […]
order reaction rate constants (k’).

[3] = Solubility in KPi buffer by NMR with TMSP internal standard; details: 50 mM KPi aqueous buffer, pH 7, aqueous with cosolvent or surfactant or cyclodextrin, kinetic from dmso stock
Text: Stability and solubility assays
TopSpin. Normalised integrations of the pyrimidine aromatic 1H signals in the starting material and
product were plotted as a function of time (s), using the TMSP peak as standard for integral
calibration/normalisation and monitoring of compound solubility, allowing extraction of pseudo first
order reaction rate constants (k’). Second order rate constants (k) were back calculated from the ratio
of the pseudo first counterparts and the concentration of thiol in solution.
was confirmed by formation of a single S-arylated product (characteristic 2-alkylthioether signals),
concomitant with formation of the sulfinic acid by -product (leaving group). Hydrolytic stability
assessment was performed at pH 7.0 and pH 8.2 in a similar manner, in the absence of thiol.
Chemoselectivity. Similarly, but replacing GSH by other amino acids , reference 2-
methylsulfonylpyrimidine 4q in 50 mM KPi (pH 8.2) was incubated with 10 equivalents of either Boc-
Lys-OH, L-ser-OMe, N-Ac-Tyr-OH or Proline were used.

p53-Y220C DBD = biological target: T1, p53-Y220C DBD (Homo sapiens, UniProt P04637, M133L/N239Y/N268D/V203A/Y220C); experiment: Protein arylation by ESI mass spectrometry; type: binding
T1 construct: (residues 94-312); 6xHis/lipoyl domain/TEV protease cleavage site (N, cleaved yes); made in house; host or cells: E. coli C41
Protocol: In mass spectrometry experiments, we incubated 50 μM purified p53-Y220C DBD in KPi buffer at varying pH’s (6.0–8.0), temperatures (0 and 20 °C), and equivalents of 2-SPs (20–100). Representative 2-SPs were selected to span a broad reactivity range to determine whether trends observed in GSH in vitro assays translate to relative rates of modification of solvent exposed cysteines in folded proteins. […] The same could also be achieved with only 20 equiv of reagent by increasing the temperature to 20 °C, or raising the pH to 8.0. This is an important result because late-stage protein functionalization with bromo- and iodo-(hetero)aromatic motifs is challenging and inaccessible by metal-catalyzed arylation methodologies due to dehalogenation and/or off-target specificity. The introduction of an iodo-(hetero)aromatic motif on the protein surface facilitates drastically the crystal structure resolution with a sharp variation of density. […] Overall, we observed good correlation between GSH and protein experiments.
Figure 4 Biophysical and structural characterization of protein cysteine arylation by 2-SPs. […] Stoichiometry, reaction time/temperature, and pH are indicated in each case. X axis: m/z (Da). Y axis: normalized intensities as a percentage of the most intense peak. Middle: Structure of the modified Y220C mutant (green) superimposed onto the structure of the unmodified protein (gray, PDB entry 6SHZ)[40] showing the region around modified C182 (E) and C277 (F). Hydrogen bonds formed by the pyrimidine are highlighted as dashed yellow lines. 2Fo – Fc electron density maps are shown at a contour level of 1.3σ for segments of chain B including the modified residues C182 and C277. Bottom (F): Protein thermal stability (ΔTm, °C) of p53-Y220C, β-catenin ARD. and FGE, determined by DSF in the presence of 100 μM 2-SP derivatives. […]

[4] = parameters: method as in PMID 11747461; details: cited from earlier work

| Compound | rate constant (k) for the reaction with GSH ([1]; pH 6.5) | rate constant (k) for the reaction with GSH ([1]; pH 7.0) | melting point | % degradation ([2]; pH 8.2) | solubility [3] | second order rate constant k with GSH ([1]; pH 7.0) | k change (vs ref) ([1]; pH 7.0) | also measured |
| --- | --- | --- | --- | --- | --- | --- | --- | --- |
| CSc1ncc(C(=O)O)cn1 [2v] | NR | NR | 251 °C | – | – | – | – | – |
| CSc1ncc([N+](=O)[O-])cn1 [2w] | 0.00025 ± 0.00016 M⁻¹ s⁻¹ | 0.0034 ± 0.0016 M⁻¹ s⁻¹ | 84 °C | – | – | – | – | – |
| CSc1ncc(-c2ccccc2)cn1 [2p] | NR | NR | 98 °C | – | – | – | – | – |
| CS(=O)(=O)c1nnnn1-c1ccccc1 [compound 7, 1-phenyl 5-methylsulfonyl tetrazole, reference compound] | – | – | – | 8% | ≥ 2000 µM | ≈ 4.3 M^–1 s^–1 | +170 fold | % degradation ([2]; pH 7.0): < 5% |
| CS(=O)(=O)c1ncc(N)cn1 [4m] | NR | NR | 138 °C | – | – | < 5.0 × 10^–5 M^–1 s^–1 | – | – |
| COC(=O)c1cnc(S(C)(=O)=O)nc1 [4y] | – | – | 128 °C | 100% | ≥ 2000 µM | ≈ 9900 M^–1 s^–1 | +396,000 fold | protein arylation by ESI-MS (in words) (p53-Y220C DBD; 20 equiv, pH 6.0, 0 °C): complete and clean double protein arylation; time to complete double arylation (p53-Y220C DBD; 20 equiv, pH 6.0, 0 °C): under 30 s; k [1]: 9900 M⁻¹ s⁻¹; k/kref [1]: 396000; ΔΔG≠1exp [1]: -7.65 kcal/mol |
| COc1cnc(S(C)(=O)=O)nc1 [4n] | NR | NR | – | – | – | < 5.0 × 10^–5 M^–1 s^–1 | – | protein modification by ESI-MS (in words) (p53-Y220C DBD; 50 μM protein, all conditions tested, even after 4 h at 20 °C): could not detect any protein modification |
| N[C@@H](CCC(=O)N[C@@H](CS)C(=O)NCC(=O)O)C(=O)O [GSH, L-glutathione] | – | – | – | – | – | – | – | pKa of the sulfhydryl group [4]: 9.2 |
| CS(=O)(=O)c1nc2ccccc2s1 [compound 9, 2-Methysulfonylbenzothiazole, reference compound] | 0.063 ± 0.023 M⁻¹ s⁻¹ | 0.23 ± 0.035 M⁻¹ s⁻¹ | – | < 5% | ≥ 2000 µM | ≈ 0.23 M^–1 s^–1 | +9 fold | % degradation ([2]; pH 7.0): 15%; k [1]: 0.23 M⁻¹ s⁻¹; k/kref [1]: 9.2; ΔΔG≠1exp [1]: -1.31 kcal/mol |
